Experimental data taken from patent US12037343B2, “Process for the preparation of sodium (2r,5s,13ar)-7,9-dioxo-10-((2,4,6,-trifluorobenzyl)carbamoyl)-2,3,4,5,7,9,13,13A-octahydro-2,5-methanopyrido[1′,2′:4,5]pyrazino[2,1-B] [1,3] oxazepin-8-olate and its polymorphic form” (Honour Lab Limited, priority 2018, dated 2024).
Where two headings read alike, the source gives them in different places.

Assay type: physicochemical
Method: The stability of sample was tested by storing the samples at 40° C./75% relative humidity (RH) and 25° C./60% RH for 6 months. The stability of samples was tested by PXRD, HPLC and water content was measured by Karl Fischer method.

## O=C(NCc1c(F)cc(F)cc1F)c1cn2c(c(O)c1=O)C(=O)N1[C@H]3CC[C@H](C3)O[C@@H]1C2 [Form HN-1, sodium (2R,5S,13aR)-7,9-dioxo-10-((2,4,6-trifluorobenzyl)carbamoyl)-2,3,4,5,7,9,13,13a-octahydro-2,5-methanopyrido [1′,2′:4,5]pyrazino[2,1-b][1,3] oxazepin-8-olate]
  stability (PXRD pattern, water content, purity after storage): physically and chemically stable
4 month, 25° C./60% RH
  Physical form (as assessed by PXRD): Crystalline
  Purity by HPLC: 99.78%
  Water content by Karl Fischer method: 3.7%
4 month, 40° C./75% RH
  Physical form (as assessed by PXRD): Crystalline
  Purity by HPLC: 99.78%
  Water content by Karl Fischer method: 3.6%
5 month, 25° C./60% RH
  Physical form (as assessed by PXRD): Crystalline
  Purity by HPLC: 99.78%
  Water content by Karl Fischer method: 3.9%
5 month, 40° C./75% RH
  Physical form (as assessed by PXRD): Crystalline
  Purity by HPLC: 99.77%
  Water content by Karl Fischer method: 3.9%
6 month, 25° C./60% RH
  Physical form (as assessed by PXRD): Crystalline
  Purity by HPLC: 99.78%
  Water content by Karl Fischer method: 3.8%
6 month, 40° C./75% RH
  Physical form (as assessed by PXRD): Crystalline
  Purity by HPLC: 99.78%
  Water content by Karl Fischer method: 3.8%
Initial
  Physical form (as assessed by PXRD): Crystalline
  Purity by HPLC: 99.82%
  Water content by Karl Fischer method: 4.2%
